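Step 1: Grow cells in 96-well plates. Step 2: Expose to compound for 48 hours at 5 concentrations. Step 3: Interpolate endpoints linearly; if unreached, use highest concentration. Abbreviation: GI50, concentration required for 50% inhibition of growth.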 Active and inactive are the calls of the source. Rule as the data show it: active = GI50 up to about 1.1 µM and inactive = higher.
Key:
Test in all cases: NCI tumour cell line growth inhibition, 48 h
MCF7 = system: MCF7
OVCAR-3 = system: OVCAR-3
Hs-578T = system: Hs-578T
Malme-3M = system: Malme-3M
MDA-MB-435 = system: MDA-MB-435
SR = system: SR
T47D = system: T47D
SK-MEL-2 = system: SK-MEL-2
DU-145 = system: DU-145
MDA-N = system: MDA-N
KM-20L2 = system: KM-20L2
HOP-92 = system: HOP-92
DLD-1 = system: DLD-1
M19-MEL = system: M19-MEL
OVCAR-8 = system: OVCAR-8
DMS-114 = system: DMS-114
NCI/ADR-RES = system: NCI/ADR-RES
DMS-273 = system: DMS-273
XF498 = system: XF498
PC-3 = system: PC-3

| Structure (SMILES) | GI50 (MCF7) | GI50 (OVCAR-3) | GI50 (Hs-578T) | GI50 (Malme-3M) | GI50 (MDA-MB-435) | GI50 (SR) | GI50 (T47D) | GI50 (SK-MEL-2) | GI50 (DU-145) | GI50 (MDA-N) | GI50 (KM-20L2) | GI50 (HOP-92) | GI50 (DLD-1) | GI50 (M19-MEL) | GI50 (OVCAR-8) | GI50 (DMS-114) | GI50 (NCI/ADR-RES) | GI50 (DMS-273) | GI50 (XF498) | GI50 (PC-3) |
| --- | --- | --- | --- | --- | --- | --- | --- | --- | --- | --- | --- | --- | --- | --- | --- | --- | --- | --- | --- | --- |
| CCOC(=O)NC(Nc1ncccn1)(C(F)(F)F)C(F)(F)F | > 100 µM (inactive) | > 100 µM (inactive) | > 100 µM (inactive) | > 100 µM (inactive) | > 100 µM (inactive) | > 100 µM (inactive) | > 100 µM (inactive) | > 100 µM (inactive) | > 100 µM (inactive) | > 100 µM (inactive) |  |  |  |  |  |  |  |  |  |  |
| Cc1nc(O)nc(O)c1/C=C/C(=O)O | > 1000 µM (inactive) | > 1000 µM (inactive) |  | > 1000 µM (inactive) |  |  |  | > 1000 µM (inactive) |  |  | > 1000 µM (inactive) | 56.6 µM (inactive) | > 1000 µM (inactive) | > 1000 µM (inactive) | > 1000 µM (inactive) | > 1000 µM (inactive) | > 1000 µM (inactive) | > 1000 µM (inactive) | > 1000 µM (inactive) |  |
| CCN1c2ccccc2-n2c(C)nnc2-c2c(-c3ccccc3)n[nH]c21 | > 10 µM (inactive) | 36.4 µM (inactive) | 46.1 µM (inactive) |  | 16.2 µM (inactive) | 13 µM (inactive) | 14.7 µM (inactive) | 19.7 µM (inactive) | 36.1 µM (inactive) | 28 µM (inactive) |  | 50.7 µM (inactive) |  |  | 24.7 µM (inactive) |  | 11.9 µM (inactive) |  |  | 30.4 µM (inactive) |
| Cc1cc(NC(=S)Nc2ccccc2)c(NC(=S)Nc2ccccc2)cc1C | 26.6 µM (inactive) | 21.1 µM (inactive) |  | 37.8 µM (inactive) |  |  |  | 16.9 µM (inactive) |  |  | 36.7 µM (inactive) | 41.9 µM (inactive) | 20.4 µM (inactive) | 23.3 µM (inactive) | 40.1 µM (inactive) |  | 11.5 µM (inactive) | 17 µM (inactive) | 16.4 µM (inactive) |  |
| CC1C(=O)C(C)C(c2ccco2)N(N=O)C1c1ccco1 (stereo unspecified) | > 100 µM (inactive) | > 100 µM (inactive) |  | > 100 µM (inactive) |  |  |  | > 100 µM (inactive) |  |  | > 100 µM (inactive) | > 68.4 µM (inactive) | > 100 µM (inactive) | > 100 µM (inactive) | > 100 µM (inactive) |  | > 100 µM (inactive) | > 100 µM (inactive) | < 0.01 µM (active) |  |
| O=C1CCC(=O)C1=NNc1ccccc1 |  | > 100 µM (inactive) |  | > 100 µM (inactive) |  |  |  | > 100 µM (inactive) |  |  |  | > 100 µM (inactive) | > 100 µM (inactive) | > 100 µM (inactive) | > 100 µM (inactive) | > 100 µM (inactive) |  | > 100 µM (inactive) |  |  |
| CCOc1ncn(-c2ccc(NC(=S)Nc3ncccn3)cc2)n1 | 32.7 µM (inactive) | 37.7 µM (inactive) |  |  | 56.1 µM (inactive) | 24 µM (inactive) | 21.7 µM (inactive) |  | 66.8 µM (inactive) |  |  | 33.5 µM (inactive) |  |  | 24.8 µM (inactive) |  |  |  |  | 46.5 µM (inactive) |
| CC(=O)OC1COC(N2c3ccccc3[C@@H]3CCc4c([nH]c5ccccc45)[C@@H]32)C(OC(C)=O)C1OC(C)=O.CC(=O)OC1COC(N2c3ccccc3[C@H]3CCc4c([nH]c5ccccc45)[C@H]32)C(OC(C)=O)C1OC(C)=O (stereo partly specified) |  | 26.1 µM (inactive) | 21.4 µM (inactive) | > 100 µM (inactive) | 51.8 µM (inactive) | 11.6 µM (inactive) |  | 44.1 µM (inactive) | > 100 µM (inactive) | 65.3 µM (inactive) |  | 57.7 µM (inactive) |  |  |  |  |  |  |  | 16.2 µM (inactive) |
| CC1=Nc2c(N)nc(N)nc2N(C)C1 | > 100 µM (inactive) | > 100 µM (inactive) | > 100 µM (inactive) | > 100 µM (inactive) | > 100 µM (inactive) |  | > 100 µM (inactive) | > 100 µM (inactive) | > 100 µM (inactive) | > 100 µM (inactive) |  |  |  |  | > 100 µM (inactive) |  |  |  |  | > 100 µM (inactive) |
| CC(Sc1ccccc1)C(CO)(CO)[N+](=O)[O-] (stereo unspecified) |  | 15.2 µM (inactive) |  | 18.9 µM (inactive) |  | 2.34 µM (inactive) |  | 18.2 µM (inactive) |  |  | 17.2 µM (inactive) |  | 14.3 µM (inactive) | 16.4 µM (inactive) | 14.8 µM (inactive) | 17.2 µM (inactive) |  | 16.7 µM (inactive) |  |  |
| CCC1C(C#N)=C(O)NC(O)=C1C#N |  | > 100 µM (inactive) |  | > 100 µM (inactive) |  |  |  | > 100 µM (inactive) |  |  | > 100 µM (inactive) | > 100 µM (inactive) | > 100 µM (inactive) | > 100 µM (inactive) | > 100 µM (inactive) | > 100 µM (inactive) |  | > 100 µM (inactive) | > 100 µM (inactive) |  |
| CCP(=O)(CC)C(Cl)(Cl)C(O)C(Cl)(Cl)Cl (stereo unspecified) | > 100 µM (inactive) | > 100 µM (inactive) | > 100 µM (inactive) |  |  | > 100 µM (inactive) | > 100 µM (inactive) | > 100 µM (inactive) | > 100 µM (inactive) | > 100 µM (inactive) |  | > 100 µM (inactive) |  |  | > 100 µM (inactive) |  | > 100 µM (inactive) |  |  | > 100 µM (inactive) |
| O=C(CCN1CCOCC1)/C(=C/c1ccccc1)c1ccccc1 | 4.28 µM (inactive) | 3.76 µM (inactive) |  | 2.24 µM (inactive) |  |  |  | 8.17 µM (inactive) |  |  | 9.82 µM (inactive) | 3.5 µM (inactive) | 1.89 µM (inactive) | 3.82 µM (inactive) | 1.95 µM (inactive) | 3.06 µM (inactive) | 2.48 µM (inactive) | 6.28 µM (inactive) | 6.5 µM (inactive) |  |
| C=C1C(=O)OC2C[C@@]3(C)CCCC(=C)C3CC12 (stereo partly specified) |  | 10.4 µM (inactive) |  | 3.52 µM (inactive) |  | > 100 µM (inactive) |  | 3.91 µM (inactive) |  |  | 12.2 µM (inactive) | 4.26 µM (inactive) | 3.49 µM (inactive) |  | 11.7 µM (inactive) | 16.2 µM (inactive) |  | 2.54 µM (inactive) | 3.69 µM (inactive) |  |
| CC(=O)c1c(-c2ccco2)c(C#N)c(=S)n(C2OC(CO)C(O)C(O)C2O)c1-c1ccccc1 (stereo unspecified) | 90.2 µM (inactive) | > 100 µM (inactive) | 61.8 µM (inactive) | 63.2 µM (inactive) | 29.2 µM (inactive) | 68.7 µM (inactive) | 29.4 µM (inactive) |  | 87.3 µM (inactive) | > 10 µM (inactive) |  |  |  |  | 81.8 µM (inactive) |  | 55.1 µM (inactive) |  |  | 64.4 µM (inactive) |
| COc1ccc(-c2cc(O)c3c(C)ccnc3n2)cc1 | 2.03 µM (inactive) |  | 23.8 µM (inactive) | 10.8 µM (inactive) |  |  | 7.43 µM (inactive) | 7.6 µM (inactive) | 28.8 µM (inactive) |  |  |  |  |  | 25.9 µM (inactive) |  | 20.2 µM (inactive) |  |  |  |
